IC50 data for ten compounds are collected here from US12303509B2, “Compounds for the treatment of BRAF-associated diseases and disorders” (Pfizer Inc., priority 2020, dated 2025).

One experiment relates to A375 cells. Put plainly: Cellular phospho-ERK inhibition assay in A375 cells. In kind it is cell-based. To be noted: Homo sapiens, A-375, A375 cells (head prints A357), 2 hours treatment, read-out: A357 cell IC50. As for the experimental part:
A375 and H1755 cells were obtained from the American Type Culture Collection (ATCC, Rockville, MD). A375 cells were maintained in DMEM growth medium containing 10% FBS. H1755 cells were maintained in RPMI growth medium containing 10% FBS.
Cells were harvested according to standard protocols, counted and plated onto flat-bottom, 96-well tissue culture plates (Costar #3599) at 2.5×10^4 cells/well for A375 cells and 1.5×10^4 cells/well for H1755 cells in 100 μL/well of growth medium containing 10% FBS. After an overnight incubation at 37° C. with 5% CO2 cells were treated for 2 hours at 37° C., 5% CO2 with compounds prepared as a 9-point, 1:3.33 fold dilution series with final compound concentrations ranging from 66 pM-10 μM and a constant DMSO concentration of 0.25%. Control wells contained either 0.25% DMSO alone (uninhibited control) or 10 μM binimetinib (complete inhibition control). The levels of phosphorylated ERK are determined using an In Cell Western protocol: following compound incubation, growth medium was discarded, and cells were fixed with 0.4% formaldehyde in PBS for 20 minutes at room temperature. Cells were permeabilized with 100% methanol for 10 minutes at room temperature. Plates were washed with PBS containing 0.05% Tween-20 and blocked for 1 hour at room temperature with LI-COR Blocking Buffer (LI-COR Biosciences; Cat #927-40000). Plates were then incubated for 2 hours at room temperature with 50 μL of a 1:400 dilution of anti-phospho-ERK1/2 (Thr202/Tyr204) (Cell Signaling; Cat #9101) and a 1:1000 dilution of anti-GAPDH (Millipore; Cat #MAB374) in LI-COR blocking buffer containing 0.05% Tween-20. Plates were washed with PBS containing […] Tween-20 then incubated at room temperature for 1 hour with 50 μL of a 1:1000 dilution of anti-rabbit AlexaFluor 680 (Life Technologies; Cat #A21109) and a 1:1000 dilution of anti-mouse IRDye 800CW (LI-COR; Cat #926-32210) in LI-COR blocking buffer containing 0.05% Tween-20. Plates were analyzed by reading on an Odyssey CLx infrared scanner. For each well, the phospho-ERK signal was normalized to the GAPDH signal and converted to POC using the following equation:
[formula] • Where: • Xmax Average Uninhibited Controls • Xmin Average Complete Inhibition Controls IC50 values were then calculated using a 4-parameter fit in XLfit software and are provided in Table A1.

Experiment [1] deals with full-length FLAG-tagged B-Raf(V600E) (Homo sapiens (Human), UniProt P15056, V600E). The experiment in a line: BRAF V600E enzyme assay (TR-FRET competitive displacement). The class given is binding. The note with it: averaged IC50; TR-FRET tracer displacement, 60 min. The procedure: A competitive displacement assay was configured for B-Raf that monitors the amount of a fluorescently-tagged “tracer” bound to B-Raf via TR-FRET from an anti-tag Eu-labeled antibody also bound to B-Raf. For full-length FLAG-tagged B-Raf(V600E), the assay mixtures consisted of 25 mM K^+HEPES, pH 7.4, 10 mM MgCl2, 0.01% Triton X-100, 1 mM DTT, 2% DMSO (from compound), 50 nM Tracer 1710 (ThermoFisher, PR9176A), 0.5 nM Eu anti-FLAG (M2)-cryptate Ab (Cisbio, 61FG2KLB) and 5 nM full-length, N-terminally FLAG-tagged B-Raf(V600E) (Origene Technologies, TP700031. Compounds were typically diluted in DMSO across an 11-point dosing range created using a 3-fold serial dilution protocol at a top dose of 10 μM. The assay was run in 384-well, polystyrene, low-volume, non-treated, white microtiter plates (Costar 4512) in a final volume of 12 μL. Low control wells included 1 μM of a potent B-Raf inhibitor as a control. The assays were incubated at ambient temperature (typically 22° C.) for 60 min and then read on a PerkinElmer EnVision microplate reader using standard TRF settings (λEx=320 nm, λEm=615 & 665 nm). The ratioed counts (665 nm/615 nm) were converted to percent of control (POC) using the following equation:
[formula] • where: • Xmax Average Uninhibited Controls • Xmin Average Background
A 4-parameter logistic model was the fit to the POC data for each compound. From that fit, the IC50 was estimated and is defined as the concentration of compound at which the best-fit curve crosses 50 POC.
Background: In TR-FRET formats the signal depends on donor and acceptor labels being close together.

Counter-ions that a name gives are not always drawn.

Sequence of full-length FLAG-tagged B-Raf(V600E) (P15056 whole entry V600E): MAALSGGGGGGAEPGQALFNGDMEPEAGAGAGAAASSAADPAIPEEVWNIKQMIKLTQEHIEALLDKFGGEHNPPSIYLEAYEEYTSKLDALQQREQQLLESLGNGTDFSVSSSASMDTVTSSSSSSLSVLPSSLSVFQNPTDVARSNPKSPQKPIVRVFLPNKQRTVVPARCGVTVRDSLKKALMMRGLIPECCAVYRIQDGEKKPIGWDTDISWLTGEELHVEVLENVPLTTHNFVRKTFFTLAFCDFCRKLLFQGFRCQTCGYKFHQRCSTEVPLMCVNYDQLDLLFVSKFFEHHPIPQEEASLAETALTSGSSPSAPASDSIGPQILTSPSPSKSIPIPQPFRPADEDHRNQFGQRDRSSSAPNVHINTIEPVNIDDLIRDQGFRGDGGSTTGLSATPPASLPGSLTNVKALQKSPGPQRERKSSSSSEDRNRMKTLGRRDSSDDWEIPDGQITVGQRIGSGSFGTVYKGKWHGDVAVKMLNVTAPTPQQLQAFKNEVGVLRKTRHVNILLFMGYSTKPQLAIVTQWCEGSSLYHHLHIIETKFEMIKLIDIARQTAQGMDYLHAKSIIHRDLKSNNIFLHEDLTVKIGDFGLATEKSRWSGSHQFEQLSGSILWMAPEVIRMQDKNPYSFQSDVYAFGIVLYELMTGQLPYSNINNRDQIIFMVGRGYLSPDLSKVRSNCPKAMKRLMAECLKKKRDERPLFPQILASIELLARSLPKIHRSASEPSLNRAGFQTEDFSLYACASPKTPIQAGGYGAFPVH

Broadly, the IC50 is the midpoint of a concentration-inhibition curve. For the compound `Cc1c(Nc2c(F)ccc(NS(=O)(=O)N(C)C3CCOC3)c2Cl)ccc2ncn(C)c(=O)c12` (centres unmarked) [Example 72, N-(2-chloro-3-((3,5-dimethyl-4-oxo-3,4-dihydroquinazolin-6-yl)amino)-4-fluorophenyl)-(N-methyl-N-(tetrahydrofuran-3-yl))-sulfamide], the IC50 in the experiment with A375 cells amounted to 195 nM; in experiment [1] it was 299 nM.

In the case of `Cc1c(Nc2c(F)ccc(NS(=O)(=O)N(C)C3CC3)c2Cl)ccc2ncn(C)c(=O)c12` [Example 73, N-(2-chloro-3-((3,5-dimethyl-4-oxo-3,4-dihydroquinazolin-6-yl)amino)-4-fluorophenyl)-(N-cyclopropyl-N-methyl)-sulfamide], the results for the IC50 (in the experiment with A375 cells; in experiment [1]) were 121 nM and 234 nM, respectively.

With `Cc1c(Nc2c(F)ccc(NS(=O)(=O)N(C)C3CCC3)c2Cl)ccc2ncn(C)c(=O)c12` [Example 74, N-(2-chloro-3-((3,5-dimethyl-4-oxo-3,4-dihydroquinazolin-6-yl)amino)-4-fluorophenyl)-(N-cyclobutyl-N-methyl)-sulfamide], the IC50 in the experiment with A375 cells was found to be 160 nM; in experiment [1], 203 nM.

Take `COC1CCN(S(=O)(=O)Nc2ccc(F)c(Nc3ccc4ncn(C)c(=O)c4c3C)c2Cl)CC1` [Example 75, N-(2-chloro-3-((3,5-dimethyl-4-oxo-3,4-dihydroquinazolin-6-yl)amino)-4-fluorophenyl)-4-methoxypiperidine-1-sulfonamide trifluoroacetate]: the IC50 turned out to be 114 nM in the experiment with A375 cells and 191 nM in experiment [1].

For `Cc1c(Nc2c(F)ccc(NS(=O)(=O)N3CCC(C(F)(F)F)C3)c2Cl)ccc2ncn(C)c(=O)c12` (centres unmarked) [Example 76, N-(2-chloro-3-((3,5-dimethyl-4-oxo-3,4-dihydroquinazolin-6-yl)amino)-4-fluorophenyl)-3-(trifluoromethyl)pyrrolidine-1-sulfonamide trifluoroacetate], the IC50 in the experiment on A375 cells was determined as 622 nM; in experiment [1], 183 nM.

For the compound `Cc1c(Nc2c(F)ccc(NS(=O)(=O)N3CCC(O)CC3)c2Cl)ccc2ncn(C)c(=O)c12` [Example 77, N-(2-chloro-3-((3,5-dimethyl-4-oxo-3,4-dihydroquinazolin-6-yl)amino)-4-fluorophenyl)-4-hydroxypiperidine-1-sulfonamide trifluoroacetate], the IC50 with A375 cells came to 127 nM; in experiment [1] it was 177 nM.

In the case of `Cc1c(Nc2c(F)ccc(NS(=O)(=O)N3CC4CCC3C4)c2Cl)ccc2ncn(C)c(=O)c12` (centres unmarked) [Example 81, N-(2-chloro-3-((3,5-dimethyl-4-oxo-3,4-dihydroquinazolin-6-yl)amino)-4-fluorophenyl)-2-azabicyclo[2.2.1]heptane-2-sulfonamide trifluoroacetate], the IC50 came to 133 nM with A375 cells and 75 nM in experiment [1].

Take `Cc1c(Nc2c(F)ccc(NS(=O)(=O)N3CCC4CC43)c2Cl)ccc2ncn(C)c(=O)c12` (centres unmarked) [Example 153, N-(2-chloro-3-((3,5-dimethyl-4-oxo-3,4-dihydroquinazolin-6-yl)amino)-4-fluorophenyl)-2-azabicyclo[3.1.0]hexane-2-sulfonamide trifluoroacetate]: the IC50 is 310 nM in the experiment with A375 cells and 71 nM in experiment [1].

In the case of `Cc1c(Nc2c(F)ccc(NS(=O)(=O)N3CC(COC(F)(F)F)C3)c2Cl)ccc2ncn(C)c(=O)c12` [Example 156, N-(2-chloro-3-((3,5-dimethyl-4-oxo-3,4-dihydroquinazolin-6-yl)amino)-4-fluorophenyl)-3-((trifluoromethoxy)methyl)azetidine-1-sulfonamide trifluoroacetate], the results for the IC50 (with A375 cells; in experiment [1]) were 872 nM and 202 nM, respectively.

For the compound `Cc1c(Nc2c(F)ccc(NS(=O)(=O)N3CC(OC(F)(F)F)C3)c2Cl)ccc2ncn(C)c(=O)c12` [Example 162, N-(2-chloro-3-((3,5-dimethyl-4-oxo-3,4-dihydroquinazolin-6-yl)amino)-4-fluorophenyl)-3-(trifluoromethoxy)azetidine-1-sulfonamide], the results for the IC50 (in the experiment with A375 cells; in experiment [1]) were 1280 nM and 114 nM, respectively.
